From BindingDB's records for doi:10.1016/s0960-894x(98)00140-1 (University of Connecticut, 1998)
pIC50: −log10 of the molar value.

Molecular target: Pancreatic triacylglycerol lipase (Sus scrofa) (UniProt P00591)
Assay: Compound was tested for inhibition of porcine pancreatic lipase

Pancreatic triacylglycerol lipase (Sus scrofa), sequence (P00591 whole entry, looked up): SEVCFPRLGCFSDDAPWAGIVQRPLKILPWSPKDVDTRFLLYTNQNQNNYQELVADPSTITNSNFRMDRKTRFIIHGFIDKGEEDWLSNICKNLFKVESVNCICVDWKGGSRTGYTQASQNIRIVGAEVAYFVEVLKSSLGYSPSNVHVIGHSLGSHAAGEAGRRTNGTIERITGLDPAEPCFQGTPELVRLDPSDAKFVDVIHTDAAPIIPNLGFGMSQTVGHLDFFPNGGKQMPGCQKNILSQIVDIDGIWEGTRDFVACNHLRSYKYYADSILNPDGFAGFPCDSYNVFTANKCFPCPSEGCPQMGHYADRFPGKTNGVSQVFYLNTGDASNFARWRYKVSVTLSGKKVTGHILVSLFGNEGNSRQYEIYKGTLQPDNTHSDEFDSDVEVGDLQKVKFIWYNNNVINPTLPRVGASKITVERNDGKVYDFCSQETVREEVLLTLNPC

- pIC50: 5.46
Compound: C=C1O[C@@H](C[C@H](CCCCCCCCCCC)OC(=O)[C@H](CC(C)C)NC=O)[C@@H]1CCCCCC
